Laboratory results from PubChem BioAssay (NCI).
Where “and” joins values, the source holds several entries; their conditions need not be identical. Equal entries are not always repeated.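 Where inhibition never reached the appropriate level, the endpoint shown equals the highest concentration tested. Otherwise, values were interpolated linearly from a five-concentration, 48-hour dose response in 96-well plates. Here, GI50 denotes the concentration required for 50% inhibition of growth. TGI: total growth inhibition.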

Tests used:
Assay in all cases: DTP human tumour cell line panel, 48 h
[1] = test system: SR leukemia
[2] = test system: K-562 leukemia
[3] = test system: OVCAR-4 ovarian
[4] = test system: MOLT-4 leukemia
[5] = test system: TK-10 renal
[6] = test system: HL-60(TB) leukemia
[7] = test system: HOP-62 NSCLC
[8] = test system: MCF7 breast
[9] = test system: OVCAR-5 ovarian
[10] = test system: SK-OV-3 ovarian

Row | SMILES | TGI [1] [µM] | TGI [2] | TGI [3] | TGI [4] | TGI [5] [µM] | TGI [6] | TGI [7] | TGI [8] | TGI [9] | TGI [10] | GI50 [1] | GI50 [2] [µM] | GI50 [3] | GI50 [4] | GI50 [5] | GI50 [6] | GI50 [7] | GI50 [8] | GI50 [9] | GI50 [10]
1 | C=C1C(=O)OC2/C=C(\COC(C)=O)CCC(OC(C)=O)C3=CC(OC3=O)C12 (centres undefined) | 16.1 | 7.63 µM | 52 µM | 5.74 µM | 15.4 | > 20.3 µM | 38.8 µM | 15.5 µM | 33.3 µM | 28.4 µM | – | – | – | – | – | – | – | – | – | –
2 | ClCc1cccc(Cn2cnc3nc(Cl)nc(Cl)c32)c1 | 2.6 | 2.95 µM | 3.21 µM | 2.7 µM | 10.8 | 2.38 µM | 3.44 µM | 1.38 µM | 3.31 µM | 22 µM | 0.233 µM | 1.48 | 1.56 µM | 1.17 µM | 5.95 µM | 1.16 µM | 1.99 µM | 0.505 µM | 1.63 µM | 8.41 µM
3 | COc1ccc2cc(C(C)C(=O)N3CCOC3=O)ccc2c1 (centres undefined) | > 100 | > 100 µM | > 100 µM | > 100 µM | > 100 | > 100 µM | > 100 µM | > 100 µM | > 100 µM | > 100 µM | – | – | – | – | – | – | – | – | – | –
4 | O=c1cccc(C#CC#CC2=CCCCC2)o1 | 23.4 | > 41.8 µM | > 49.3 µM | > 33 µM | 14.2 | 18.3 µM | 16.3 µM | 13.4 µM | 10.2 µM | 27.9 µM | 0.0307 µM | 3.26 | 28 µM | 0.309 µM | 8.69 µM | 4.77 µM | 8.65 µM | 5.04 µM | 6.21 µM | 10.5 µM
5 | CN(C)C(=O)[C@H](O)[C@H](Cc1ccccc1)NC(=O)c1cc2cc(Cl)ccc2[nH]1 | 88.7 | > 100 µM | > 100 µM | 79.4 µM | 67 | 54.1 µM | 66.6 µM | > 83.3 µM | 49.9 µM | 97.8 µM | 26.6 µM | 25.8 | 25.8 µM | 21 µM | 24.3 µM | 19.1 µM | 22.6 µM | 22.1 µM | 19.1 µM | 29.1 µM
6 | C[C@]12CC[C@@H]3c4cc(OCC(F)(F)F)c(O)cc4/C(=N/O)C[C@H]3[C@@H]1CC[C@@H]2O | – | – | 39 µM | – | > 100 | > 100 µM | 0.419 µM | 33.9 µM | > 58.2 µM | 0.439 µM | 0.00319 µM and 0.0157 µM | 0.0213 | – | 0.0575 µM | – | 0.031 µM | 0.029 µM | – | – | –
7 | O=c1cc(NC2CCN(CCCc3ccccc3)CC2)c2cc(Cl)ccc2o1 | 28.3 | 20.5 µM | 35.6 µM | 37.9 µM | 26.6 | 49.3 µM | 33.3 µM | 26.9 µM | 24.6 µM | 29.8 µM | 6.81 µM | 3.86 | 13.2 µM | 8.26 µM | 13.4 µM | 20.5 µM | 17.3 µM | 9.42 µM | 10.8 µM | 16.1 µM
8 | Cc1ncc(CCCN(C)C)cc1Nc1ncc2c(n1)-c1ccc(C(F)(F)F)cc1NC(=S)C2 | 3.35 | > 34 µM | > 100 µM | 16.6 µM | 19.8 | 0.872 µM | 1.54 µM | 11.2 µM | > 51.1 µM | 0.448 µM | < 0.01 µM | < 0.0169 | 1.22 µM | < 0.0156 µM | 0.65 µM | < 0.0148 µM | < 0.0155 µM | < 0.0155 µM | < 0.0237 µM | < 0.0155 µM
9 | CCc1nc(C(N)=O)c(Nc2ccc(N3CCC(N4CCN(C)CC4)CC3)c(OC)c2)nc1NC1CCOCC1 | – | 33 µM and > 2.39 µM and 45.4 µM | 27.8 µM and > 10 µM and 32.2 µM | 21.5 µM and > 2.7 µM and 25.4 µM | – | 11.3 µM and > 10 µM and 14.9 µM | 16.3 µM and > 2.98 µM and 17.6 µM | 17.2 µM and > 10 µM and 17.7 µM | 14.5 µM and > 10 µM | 12.3 µM and > 10 µM and 13.8 µM | < 0.0135 µM and 0.0021 µM and 0.013 µM | – | 12.8 µM and > 10 µM and 13.8 µM | 3.55 µM and 0.794 µM and 4.06 µM | 1.75 µM and 0.23 µM and 1.35 µM | 0.871 µM and 0.367 µM and 0.968 µM | 1.26 µM and 0.238 µM and 1.2 µM | 0.672 µM and 0.258 µM and 0.493 µM | 0.484 µM and 0.279 µM and 0.486 µM | 1.57 µM and 0.397 µM and 1.51 µM
10 | COc1cc2[nH]c(C(=O)c3cc(OC)c(OC)c(OC)c3)c(N)c2cc1C#CC1CC1 | > 100 | > 100 µM | > 100 µM | > 100 µM | > 100 | 22 µM | > 100 µM | > 100 µM | > 100 µM | > 100 µM | 0.976 µM | 1.94 | 4.01 µM | 4.32 µM | 40 µM | 3.36 µM | 2.64 µM | 1.85 µM | 11.9 µM | 3.42 µM
11 | O=S(=O)(Nc1cc(Sc2cccc3cccnc23)c(O)c2ccccc12)c1ccccc1 | 17.2 | 16.5 µM | 1.75 µM | 5.53 µM | 18.3 | 4.69 µM | 25.4 µM | 2.85 µM | 11 µM | 17.9 µM | 0.426 µM | 0.929 | 0.474 µM | 0.546 µM | 5.08 µM | 0.487 µM | 1.01 µM | 0.52 µM | 1.99 µM | 4.3 µM
